Laboratory results: PubChem BioAssay (NCI)
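Assay format: 96-well plates, 48-hour exposure. TGI: total growth inhibition.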

Assays:
Experiment in all cases: growth of human tumour cells (NCI), 48 h
[1] = test system: SN12C renal
[2] = test system: UACC-257 melanoma
[3] = test system: OVCAR-3 ovarian
[4] = test system: SK-MEL-28 melanoma
[5] = test system: SK-MEL-5 melanoma
[6] = test system: MDA-N
[7] = test system: BT-549 breast
[8] = test system: HS 578T breast
[9] = test system: IGROV1 ovarian
[10] = test system: NCI/ADR-RES ovarian
[11] = test system: SF-268 CNS
[12] = test system: A498 renal
[13] = test system: COLO 205 colon
[14] = test system: HCT-116 colon
[15] = test system: ACHN renal
[16] = test system: OVCAR-5 ovarian
[17] = test system: TK-10 renal
[18] = test system: UACC-62 melanoma
[19] = test system: NCI-H226 lung
[20] = test system: SK-MEL-2 melanoma
[21] = test system: MDA-MB-435
[22] = test system: NCI-H23 lung
[23] = test system: OVCAR-4 ovarian
[24] = test system: LOX IMVI melanoma
[25] = test system: MOLT-4 leukemia
[26] = test system: SW-620 colon
[27] = test system: HT29 colon
[28] = test system: MDA-MB-231 breast
[29] = test system: SK-OV-3 ovarian
[30] = test system: HL-60(TB) leukemia
[31] = test system: SNB-75 CNS
[32] = test system: CCRF-CEM leukemia
[33] = test system: EKVX NSCLC
[34] = test system: HOP-62 NSCLC
[35] = test system: MALME-3M melanoma
[36] = test system: MCF7 breast
[37] = test system: M14 melanoma
[38] = test system: SNB-19 CNS
[39] = test system: K-562 leukemia
[40] = test system: NCI-H522 lung
[41] = test system: KM12 colon
[42] = test system: CAKI-1 renal
[43] = test system: PC-3 prostate
[44] = test system: RXF 393 renal
[45] = test system: RPMI-8226 leukemia
[46] = test system: HCT-15 colon
[47] = test system: UO-31 renal
[48] = test system: SF-295 CNS
[49] = test system: A549 NSCLC
[50] = test system: OVCAR-8 ovarian
[51] = test system: U251 CNS
[52] = test system: DU-145 prostate
[53] = test system: T-47D breast
[54] = test system: 786-0 renal
[55] = test system: SR leukemia
[56] = test system: SF-539 CNS
[57] = test system: HCC-2998 colon
[58] = test system: NCI-H460 lung

CCCOC(=O)C1C2CCC(O2)C1C(=O)O (stereo not drawn)
TGI [1]: > 100 µM | TGI [2]: > 100 µM | TGI [3]: > 100 µM | TGI [4]: > 100 µM | TGI [5]: > 100 µM | TGI [6]: > 100 µM | TGI [7]: > 100 µM | TGI [8]: > 100 µM | TGI [9]: > 100 µM | TGI [10]: > 100 µM | TGI [11]: > 100 µM | TGI [12]: > 100 µM | TGI [13]: > 100 µM | TGI [14]: > 100 µM | TGI [15]: > 100 µM | TGI [16]: > 100 µM | TGI [17]: > 100 µM | TGI [18]: > 100 µM | TGI [19]: > 100 µM | TGI [20]: > 100 µM | TGI [21]: > 100 µM | TGI [22]: > 100 µM | TGI [23]: > 100 µM | TGI [24]: > 100 µM | TGI [25]: > 100 µM | TGI [26]: > 100 µM | TGI [27]: > 100 µM | TGI [28]: > 100 µM | TGI [29]: > 100 µM | TGI [30]: > 100 µM | TGI [31]: > 100 µM | TGI [32]: > 100 µM | TGI [33]: > 100 µM | TGI [34]: > 100 µM | TGI [35]: > 100 µM | TGI [36]: > 100 µM | TGI [37]: > 100 µM | TGI [38]: > 100 µM | TGI [39]: > 100 µM | TGI [40]: > 100 µM | TGI [41]: > 100 µM | TGI [42]: > 100 µM | TGI [43]: > 100 µM | TGI [44]: > 100 µM | TGI [45]: > 100 µM | TGI [46]: > 100 µM | TGI [47]: > 100 µM | TGI [48]: > 100 µM | TGI [49]: > 100 µM | TGI [50]: > 100 µM | TGI [51]: > 100 µM | TGI [52]: > 100 µM | TGI [53]: > 100 µM | TGI [54]: > 100 µM | TGI [55]: > 100 µM

O=c1[nH]c2ccc([N+](=O)[O-])cc2nc1/C=C(\O)c1ccccc1
TGI [1]: 59.5 µM | TGI [2]: > 100 µM | TGI [3]: 99.2 µM | TGI [5]: > 100 µM | TGI [6]: > 100 µM | TGI [7]: > 100 µM | TGI [8]: 8.93 µM | TGI [9]: > 100 µM | TGI [10]: 81.5 µM | TGI [11]: 58.3 µM | TGI [12]: 47.4 µM | TGI [13]: > 100 µM | TGI [14]: > 100 µM | TGI [56]: 69.8 µM | TGI [15]: > 100 µM | TGI [16]: > 100 µM | TGI [17]: 14.8 µM | TGI [18]: > 100 µM | TGI [19]: > 100 µM | TGI [20]: > 100 µM | TGI [21]: > 100 µM | TGI [22]: 73.3 µM | TGI [23]: 8.87 µM | TGI [25]: > 100 µM | TGI [27]: > 100 µM | TGI [28]: 15.3 µM | TGI [29]: 33.7 µM | TGI [31]: 58.3 µM | TGI [32]: > 100 µM | TGI [33]: > 100 µM | TGI [34]: 22.1 µM | TGI [35]: > 100 µM | TGI [36]: > 100 µM | TGI [57]: > 100 µM | TGI [37]: > 100 µM | TGI [38]: 31.8 µM | TGI [39]: > 100 µM | TGI [40]: 34.6 µM | TGI [41]: > 100 µM | TGI [42]: 62 µM | TGI [43]: > 100 µM | TGI [58]: 16.5 µM | TGI [44]: 49.8 µM | TGI [46]: > 100 µM | TGI [47]: > 100 µM | TGI [48]: > 100 µM | TGI [49]: > 100 µM | TGI [50]: 49.4 µM | TGI [51]: 30.3 µM | TGI [52]: > 100 µM | TGI [53]: > 100 µM | TGI [54]: 20.6 µM | TGI [55]: > 100 µM
